Test results published in patent US6133294A (priority 1999, dated 2000).

Key:
Format in all cases: in vivo
Erysiphe graminis = experiment: Powdery Mildew of Wheat (Erysiphe graminis--ERYSGT); conditions: wheat (cultivar Monon), 100 ppm spray to run off, inoculated after 24 hours; for pest or weed control at 100 ppm: Blumeria graminis, 1DP, read-out: control of plant disease, ERYSGT 1DP
Protocol: (§1) Compound Formulation: Compound formulation was accomplished by dissolving technical materials in acetone, with serial dilutions then made in acetone to obtain desired rates. Final treatment volumes were obtained by adding nine volumes 0.05% aqueous Tween-20 or Triton X-100, depending upon the pathogen.
Powdery Mildew of Wheat (Erysiphe graminis--ERYSGT): Wheat (cultivar Monon) was grown in a soilless peat-based potting mixture (Metromix) until the seedlings were 1-2 leaf (BBCH 12). These plants were then sprayed to run off with the test compound at a rate of 100 ppm. After 24 hours the test plants were inoculated with Erysiphe graminis by dusting spores from stock plants onto the test plants. The plants were then transferred to the greenhouse until disease developed on the untreated control plants.
(§2) the following table presents the activity of typical compounds of the present invention when evaluated in these experiments. The effectiveness of the test compounds in controlling disease was rated using the following scale: […]

Leptosphaeria nodorum = experiment: Glume blotch of wheat (Leptosphaeria nodorum--LEPTNO); conditions: wheat (cultivar Monon), 100 ppm spray to run off, inoculated after 24 hours; for pest or weed control at 100 ppm: Parastagonospora nodorum, 1DP, read-out: control of plant disease, LEPTNO 1DP
Protocol: as §1
(§3) Glume blotch of wheat (Leptosphaeria nodorum--LEPTNO): Wheat (cultivar Monon) was grown from seed in a soilless peat-based potting mixture (Metromix) until the seedlings were 1-2 leaf (BBCH 12). These plants were then sprayed to run off with the test compound at a rate of 100 ppm. After 24 hours the test plants were inoculated with an aqueous spore suspension of Leptosphaeria nodorum. The plants were then transferred to the greenhouse until disease developed on the untreated control plants.
as §2

Phytophthora infestans = experiment: whole plant or invertebrate; conditions: for pest or weed control at 100 ppm: Phytophthora infestans, 24 h, read-out: control of plant disease, PHYTIN 1DP; for control of plant disease, PHYTIN 1DP: tomatoes (cultivar Rutgers), 100 ppm spray to run off, inoculated after 24 hours
Puccinia recondita = experiment: Brown rust (Puccinia recondita--PUCCRT); conditions: wheat (cultivar Monon), 100 ppm spray to run off, inoculated after 24 hours; for pest or weed control at 100 ppm: Puccinia recondita, 1DP, read-out: control of plant disease, PUCCRT 1DP
Protocol: as §1
as §3, with “Brown rust (Puccinia recondita--PUCCRT):” for “Glume blotch of wheat (Leptosphaeria nodorum--LEPTNO):”, “[…]).” for “1-2 leaf (BBCH 12).”, “Puccinia recondita.” for “Leptosphaeria nodorum.”
as §2

Compound | pest or weed control at 100 ppm (Erysiphe graminis) | pest or weed control at 100 ppm (Leptosphaeria nodorum) | pest or weed control at 100 ppm (Phytophthora infestans) | pest or weed control at 100 ppm (Puccinia recondita) | control of plant disease, ERYSGT 1DP (Erysiphe graminis) | control of plant disease, LEPTNO 1DP (Leptosphaeria nodorum) | control of plant disease, PHYTIN 1DP (Phytophthora infestans) | control of plant disease, PUCCRT 1DP (Puccinia recondita)
CCc1cc(-c2cnc(OCc3ccccc3C(=NOC)C(=O)NC)c(Cl)c2)on1 [Example 76] | 75 to 100% | 75 to 100% | 25 to 74% | 75 to 100% | – | – | – | –
CNC(=O)C(=NOC)c1ccccc1COc1ncc(-c2nnc(C3CC3)o2)cc1Cl [Example 1, Benzeneacetamide, 2-[[[3-chloro-5-(5-cyclopropyl-1,3,4-oxadiazol-2-yl)-2-pyridinyl]oxy]methyl]-α-(methoxyimino)-N-methyl-] | 0 to 24% | 0 to 24% | 75 to 100% | 75 to 100% | – | – | – | –
CCc1noc(-c2cccc(OCc3ccccc3C(=NOC)C(=O)NC)n2)n1 [Example 83] | 25 to 74% | 75 to 100% | 75 to 100% | 75 to 100% | – | – | – | –
CCCc1noc(-c2ccc(OCc3ccccc3C(=NOC)C(=O)NC)nc2)n1 [Example 74] | 75 to 100% | 0 to 24% | 0 to 24% | 75 to 100% | – | – | – | –
CNC(=O)C(=NOC)c1ccccc1COc1ccc(-c2noc(C(F)(F)F)n2)cn1 [Example 16] | 75 to 100% | 0 to 24% | 0 to 24% | 75 to 100% | – | – | – | –
CNC(=O)C(=NOC)c1ccccc1COc1ncc(-c2noc(CSc3ccccc3)n2)cc1Cl [Example 24] | 0 to 24% | 75 to 100% | 75 to 100% | 75 to 100% | – | – | – | –
CNC(=O)C(=NOC)c1ccccc1COc1ccc(-c2noc(C)n2)cn1 [Example 10] | 75 to 100% | 75 to 100% | 0 to 24% | 75 to 100% | – | – | – | –
CCc1nc(-c2cnc(OCc3ccccc3C(=NOC)C(=O)NC)c(Cl)c2)no1 [Example 36] | 75 to 100% | 75 to 100% | 0 to 24% | 75 to 100% | – | – | – | –
CNC(=O)C(=NOC)c1ccccc1COc1ccc(-c2cc(C(C)(C)C)on2)cn1 [Example 43] | 75 to 100% | 75 to 100% | 75 to 100% | 75 to 100% | – | – | – | –
O=C(NNC(=O)C1CC1)c1cnc(Cl)c(Cl)c1 [Example 19] | – | – | – | – | ++ (75-100% control of plant disease) | ++ (75-100% control of plant disease) | - (0-24% control of plant disease) | ++ (75-100% control of plant disease)
CCOC(=O)c1nc(-c2cnc(OCc3ccccc3C(=NOC)C(=O)NC)c(C)c2)oc1C [Example 52, Benzeneacetamide, 2-[[[3-methyl-5-(4-ethoxycarbonyl-5-methyl-oxazol-2-yl)-2-pyridinyl]oxy]methyl]-α-(methoxyimino)-N-methyl-] | 25 to 74% | 25 to 74% | 75 to 100% | 75 to 100% | – | – | – | –
CNC(=O)C(=NOC)c1ccccc1COc1ccc(-c2nc(C(C)C)no2)cn1 [Example 70] | 75 to 100% | 75 to 100% | 0 to 24% | 75 to 100% | – | – | – | –
COC=C(C(=O)OC)c1ccccc1COc1ncc(-c2noc(C(C)(C)C)n2)cc1Cl [Example 98] | 75 to 100% | 75 to 100% | 0 to 24% | 75 to 100% | – | – | – | –
CCc1noc(-c2cccc(OCc3ccccc3C(=NOC)C(=O)NC)n2)n1 [Example 85] | – | – | – | – | + (25-74% control of plant disease) | - (0-24% control of plant disease) | - (0-24% control of plant disease) | ++ (75-100% control of plant disease)
CCc1cc(-c2cnc(OCc3ccccc3C(=NOC)C(=O)NC)c(Cl)c2)no1 [Example 39] | 75 to 100% | 75 to 100% | 0 to 24% | 75 to 100% | – | – | – | –
CCC=Cc1nc(-c2cnc(OCc3ccccc3C(=NOC)C(=O)NC)c(Cl)c2)no1 [Example 22] | 75 to 100% | 75 to 100% | 0 to 24% | 75 to 100% | – | – | – | –

Compound | pest or weed control at 100 ppm (Erysiphe graminis) | pest or weed control at 100 ppm (Leptosphaeria nodorum) | pest or weed control at 100 ppm (Phytophthora infestans) | pest or weed control at 100 ppm (Puccinia recondita) | control of plant disease, ERYSGT 1DP (Erysiphe graminis) | control of plant disease, LEPTNO 1DP (Leptosphaeria nodorum) | control of plant disease, PHYTIN 1DP (Phytophthora infestans) | control of plant disease, PUCCRT 1DP (Puccinia recondita)
CNC(=O)C(=NOC)c1ccccc1COc1ncc(-c2noc(C3CCCC3)n2)cc1Cl [Example 13] | 75 to 100% | 75 to 100% | 0 to 24% | 75 to 100% | – | – | – | –
CNC(=O)C(=NOC)c1ccccc1COc1ncc(-c2nnc(C(C)(C)C)o2)cc1Cl [Example 4] | 75 to 100% | 75 to 100% | 0 to 24% | 75 to 100% | – | – | – | –
CNC(=O)C(=NOC)c1ccccc1COc1ncc(-c2nc(C)no2)cc1Cl [Example 49, Benzeneacetamide, 2-[[[3-chloro-5-(3-methyl-1,2,4-oxadiazol-5-yl)-2-pyridinyl]oxy]methyl]-α-(methoxyimino)-N-methyl-] | 75 to 100% | 75 to 100% | 0 to 24% | 75 to 100% | – | – | – | –
CCc1noc(-c2cnc(OCc3ccccc3C(=NOC)C(=O)NC)c(Cl)c2)n1 [Example 54] | 75 to 100% | 75 to 100% | 75 to 100% | 75 to 100% | – | – | – | –
CNC(=O)C(=NOC)c1ccccc1COc1ncc(-c2nc(C3CCCCC3)no2)cc1Cl [Example 72] | 0 to 24% | 0 to 24% | 0 to 24% | 75 to 100% | – | – | – | –
CNC(=O)C(=NOC)c1ccccc1COc1ncc(-c2noc(C34CC5CC(CC(C5)C3)C4)n2)cc1Cl [Example 15] | 75 to 100% | 0 to 24% | 75 to 100% | 75 to 100% | – | – | – | –
CNC(=O)C(=NOC)c1ccccc1COc1ncc(-c2nc(N(C)C)no2)cc1Cl [Example 64] | 75 to 100% | 75 to 100% | 0 to 24% | 75 to 100% | – | – | – | –
CNC(=O)C(=NOC)c1cccc(F)c1COc1ncc(-c2noc(C(C)(C)C)n2)cc1Cl [Example 27] | – | – | – | – | ++ (75-100% control of plant disease) | ++ (75-100% control of plant disease) | - (0-24% control of plant disease) | ++ (75-100% control of plant disease)
CNC(=O)C(=NOC)c1ccccc1COc1ccc(-c2nc(C(F)(F)F)no2)cn1 [Example 71] | 75 to 100% | 0 to 24% | 75 to 100% | 75 to 100% | – | – | – | –
CNC(=O)C(=NOC)c1ccccc1COc1ncc(-c2nc(C(F)(F)F)no2)cc1Cl [Example 68] | 75 to 100% | 75 to 100% | 0 to 24% | 75 to 100% | – | – | – | –
CNC(=O)C(=NOC)c1ccccc1COc1ncc(-c2noc(C3CC3)n2)cc1Cl [Example 21] | 75 to 100% | 75 to 100% | 75 to 100% | 75 to 100% | – | – | – | –
CNC(=O)C(=NOC)c1ccccc1COc1ccc(-c2noc(COC)n2)cn1 [Example 25] | 75 to 100% | 25 to 74% | 75 to 100% | 75 to 100% | – | – | – | –
CNC(=O)C(=NOC)c1cccc(Cl)c1COc1ncc(-c2noc(C(F)(F)F)n2)cc1Cl [Example 34] | – | – | – | – | ++ (75-100% control of plant disease) | ++ (75-100% control of plant disease) | - (0-24% control of plant disease) | ++ (75-100% control of plant disease)
CCOc1cc(-c2cnc(OCc3ccccc3C(=NOC)C(=O)NC)c(Cl)c2)no1 [Example 40] | 75 to 100% | 0 to 24% | 25 to 74% | 75 to 100% | – | – | – | –
CNC(=O)C(=NOC)c1ccccc1COc1ncc(-c2nnc(C)o2)cc1Cl [Example 3] | 75 to 100% | 75 to 100% | 75 to 100% | 75 to 100% | – | – | – | –
